Data on 46 compounds can be found in patent US4145557A, “(Phenoxyphenyl) alkyl acetates, propionates, and carbamates” (Eli Lilly and Company, priority 1977, dated 1979).

Broadly, the pKa is the pH at which an ionisable group is half protonated. A high value points to a weaker acid or stronger base. By ED50 is commonly meant the dose at which the effect has come halfway, by size or by number of responders.

The nature of one data set: pK'a determination. The data set is classed as physicochemical.
The test system of data set [1] is ultraviolet erythema in guinea pigs. Kind of data set: Erythema blocking assay (anti-inflammatory activity, ultraviolet erythema, oral). The data set is classed as in vivo, Albino guinea pigs. The conditions noted are these: Cavia porcellus, read-out: Erythema Blocking Assay Oral ED50. The protocol: Various compounds within the scope of this invention were tested for anti-inflammatory activity in an erythema blocking assay which involved the following test procedure.
A modification of the Winder et al. (1958) method [Winder, C. V., Wax, J., Burr, V. and Posiere, C. E.: "A Study of Pharmacological Influences on Ultraviolet Erythema in Guinea Pigs", Arch. Int. Pharmacodyn., 116, 261, 1958] was used to measure anti-inflammatory activity of these compounds. Albino guinea pigs of either sex weighing 225-300 grams were shaved on the back and chemically (NAIR®, Lotion Hair Remover, Carter Products, N. Y., N. Y.) depitated, 18-20 hours before exposure to ultraviolet light. The animals were fasted overnight. Immediately after the guinea pigs were treated with a test compound, gummed notebook paper reinforcements were placed on their backs, and they were exposed to a high intensity ultraviolet light for seven seconds. The ultraviolet light source was a Hanovia Lamp (Kromayer-Model 10) which was placed in contact with the skin of the guinea pig's back. After exposure, the reinforcements were removed and their backs wiped clean with a water soaked gauze sponge. The unexposed area under the reinforcements provided an area of contrast for grading the erythema. The animals were randomized and placed in clear plastic partitioned holders 10 × 20 cm. wide and 15 cm. high. Beginning one hour after exposure and thereafter at half-hour intervals for another one and one-half hours, the degree of resulting erythema was graded by an arbitrary scoring system based upon the degree of contrast and redness formed. Anti-inflammatory agents delay the development of the erythema and therefore have their greatest effect at the initial grading periods. Therefore, the scores were weighed by a factor of 4, 3, 2, and 1 at the 1.0-, 1.5-, 2.0-, and 2.5-hour scoring times, respectively. The erythema was graded as follows:
Score Appearance of Exposed Area
______________________________________
0 No redness and no contrast
1 Slight redness with a faint reinforcement outline
2 Slight to moderate redness with a distinct outline
3 Marked redness with a distinct circular outline
Total scores from each treatment group of five or six guinea pigs were compared to the control treatment and the percent inhibition calculated as follows:
100 × Control - Treatment/Control = Percent Inhibition
Test compounds were prepared in a suspension of 1 percent methylcellulose in water and administered orally. Guinea pigs were treated orally with 1.0 cc./kg. of the suspensions. Control animals received 1.0 cc./kg. of a 1 percent methylcellulose suspension. The dose that produces a 50 percent inhibition of the erythemic response (ED50) was calculated. The ED50 results in (mg./kg.) are recorded in the following table: […]

Data set [2] relates to acetic acid-induced writhing in mice. Kind of data set: Analgesic writhing test (inhibition of acetic acid-induced writhing). It counts as in vivo, Standard strain albino male mice. The settings on record: Mus musculus, sc, read-out: Analgesic Writhing Test Subcutaneous ED50. Here is the method:
A method similar to that reported by Koster, R., et al., "Acetic Acid for Analgesic Screening" Fed.
Standard strain albino male mice, weighing 16-18 grams, were administered the treatments either subcutaneously or by gastric lavage. At various times after treatment, writhing was induced by the intraperitoneal administration of 60 mg./kg. of acetic acid (0.6 percent). Each treatment group consisted of 6 mice. The total number of writhes for the treatment group were counted in a 10-minute observation period starting 5 minutes after the acetic acid administration. The treatment totals were compared to controls and a percent inhibition calculated as follows:
Percent Inhibition = 100 - (Treatment total/Control Total × 100)
The ED50 values in the table which follows represents the doses in mg. of compound/kg. of body weight which will produce a 50 percent inhibition of the frequency of writhing.
For orientation: Writhing tests count abdominal constrictions after an irritant is injected.

Where [3] appears, read: oral, guinea pigs, 50 percent inhibition of erythemic response, single dose in 1 percent methylcellulose, scored 1.0-2.5 hours.
[4] abbreviates: subcutaneous, mice, 50 percent inhibition of frequency of writhing, 60 mg./kg. acetic acid intraperitoneal.

Molecules are shown by their SMILES. Structures can show the parent of a compound that is named as a salt. Where two headings read alike, the source gives them in different places. A value given as a limit tells only on which side of the number the result lay.

In the data set “pK'a determination”, `CC(C)=CCN(C)CC(C)c1cccc(Oc2ccccc2)c1` (stereo not drawn) [N-Methyl-N-(3-methylbut-2-enyl)-2-(3-phenoxyphenyl)propylamine hydrochloride] registered a pKa of 8.5.

Regarding `CC(C(=O)N(C)C)c1cccc(Oc2ccccc2)c1` (stereo not drawn), the ED50 in data set [1] (setting [3]) worked out at 25 mg/kg. Compound `CC(c1cccc(Oc2ccccc2)c1)c1nnn[nH]1` (stereo not drawn) [5-(α-Methyl-3-phenoxybenzyl)-1H-tetrazole] gave a pKa in “pK'a determination” of 5.8.

Regarding `NCCc1cccc(Oc2ccccc2)c1` [CH2 CH2 NH2 . HCl], the ED50 in data set [1] (setting [3]) is 75 mg/kg; in data set [2], 4 mg/kg. With `CC(=O)Oc1ccccc1C(=O)O` [A.S.A., reference compound], the ED50 in data set [1] (po) was 50 mg/kg; in data set [2], 20 mg/kg. As to `CNC(=O)C(C)c1cccc(Oc2ccccc2)c1` (stereo not drawn), the 50% effective dose (ED50) in data set [1] (setting [3]) stood at 30 mg/kg. The same measure, in the same setting: to `CC(CN(C)CC1CC1)c1cccc(Oc2ccccc2)c1` (stereo not drawn) [drawing 23] belongs 3 mg/kg. Take `CNCC(C)c1cccc(Oc2ccccc2)c1` (stereo not drawn) [drawing 43]: the median effective dose (ED50) in data set [2] (setting [4]) worked out at 20 mg/kg. Turning to `CNCC(C)c1cccc(Oc2ccccc2)c1` (stereo not drawn) [drawing 18], in data set [1] (setting [3]), the ED50 was found to be 1 mg/kg. On to `CNCCC(C)c1cccc(Oc2ccccc2)c1` (stereo not drawn) [N-Methyl-3-(3-phenoxyphenyl)butylamine hydrochloride], for which, in the data set “pK'a determination”, the pKa is 10. On the same count and under the same terms, the same measure for `CC(C(=O)O)c1cccc(Oc2ccccc2)c1` (stereo not drawn) [2-(3-phenoxyphenyl)propionic acid]: 7.3. In the case of `CC(CNCC1CC1)c1cccc(Oc2ccccc2)c1` (stereo not drawn), the ED50 in data set [1] (setting [3]) came to 20 mg/kg. On the same count and under the same terms, the same measure for `CC(C)=CCN(C)CC(C)c1cccc(Oc2ccccc2)c1` (stereo not drawn) [drawing 26]: 5 mg/kg.

Take `CC(CN(C)C1CC1)c1cccc(Oc2ccccc2)c1` (stereo not drawn) [N-Methyl-N-cyclopropyl-2-(3-phenoxyphenyl)propylamine hydrochloride]: the pKa in “pK'a determination” turned out to be 6.9. With `CC(CNC1CC1)c1cccc(Oc2ccccc2)c1` (stereo not drawn) [drawing 20], the 50% effective dose (ED50) in data set [1] (setting [3]) turned out to be 9 mg/kg.

As to `C=CCN(C)CC(C)c1cccc(Oc2ccccc2)c1` (stereo not drawn) [drawing 25], in data set [1] (setting [3]), the 50% effective dose (ED50) is 3 mg/kg. With `CC(CN(C)CC1CC1)c1cccc(Oc2ccccc2)c1` (stereo not drawn) [drawing 46], in data set [2] (setting [4]), the ED50 was < 50 mg/kg. As to `CC(C(=O)NO)c1cccc(Oc2ccccc2)c1` (stereo not drawn), in data set [1] (setting [3]), the median effective dose (ED50) came to 2 mg/kg. Consider `CC(CN(C)C)c1cccc(Oc2ccccc2)c1` (stereo not drawn) [drawing 19], for which, in data set [1] (setting [3]), the ED50 came out at 8 mg/kg. For `CC(CN(C)CCc1ccccc1)c1cccc(Oc2ccccc2)c1` (stereo not drawn) [N-Methyl-N-(2-phenylethyl)-2-(3-phenoxyphenyl)propylamine hydrochloride], in “pK'a determination”, the pKa turned out to be 7.7. For the compound `CCC(CNC)c1cccc(Oc2ccccc2)c1` (stereo not drawn), the ED50 in data set [2] (setting [4]) worked out at 20 mg/kg. Turning to `CC(CN(C)C)c1cccc(Oc2ccccc2)c1` (stereo not drawn) [drawing 44], the ED50 in data set [2] (setting [4]) was 10 mg/kg. For `CC(C(=O)NCC(=O)O)c1cccc(Oc2ccccc2)c1` (stereo not drawn), the ED50 in data set [1] (setting [3]) was 5 mg/kg. Same read-out and setting: to `CNC(=O)OCC(C)c1cccc(Oc2ccccc2)c1` (stereo not drawn) belongs 40 mg/kg; to `CC(CO)c1cccc(Oc2ccccc2)c1` (stereo not drawn), 2 mg/kg.

For `CC(CN)c1cccc(Oc2ccccc2)c1` (stereo not drawn) [drawing 42], the median effective dose (ED50) in data set [2] (setting [4]) was determined as 20 mg/kg. In turn, `CNCCc1cccc(Oc2ccccc2)c1.Cl` [N-Methyl-2-(3-phenoxyphenyl)ethylamine hydrochloride] registered a pKa in “pK'a determination” of 9.7. Moreover, the values for the ED50 in data set [1] (po) and in data set [2] were 10 mg/kg and 25 mg/kg, respectively. Take `C=CCN(C)CC(C)c1cccc(Oc2ccccc2)c1` (stereo not drawn) [N-Methyl-N-allyl-2-(3-phenoxyphenyl)propylamine hydrochloride]: the pKa in the data set “pK'a determination” was 7.6.

In the case of `CC(CNC1CC1)c1cccc(Oc2ccccc2)c1` (stereo not drawn) [N-Cyclopropyl-2-(3-phenoxyphenyl)propylamine hydrochloride], the pKa in “pK'a determination” stood at 7.9. For `CC(CN(C)CCc1ccccc1)c1cccc(Oc2ccccc2)c1` (stereo not drawn) [drawing 28], the 50% effective dose (ED50) in data set [1] (setting [3]) turned out to be 5 mg/kg. The same measure, in the same setting: the same measure for `CC(C(N)=O)c1cccc(Oc2ccccc2)c1` (stereo not drawn): 3 mg/kg. Still for that read-out and setting: the same measure for `CC(CNCCc1ccccc1)c1cccc(Oc2ccccc2)c1` (stereo not drawn): 15 mg/kg. In “pK'a determination”, `C=CCNCC(C)c1cccc(Oc2ccccc2)c1` (stereo not drawn) [N-Allyl-2-(3-phenoxyphenyl)propylamine hydrochloride] returned a pKa of 8.5. Take `CC(CN(C)C1CC1)c1cccc(Oc2ccccc2)c1` (stereo not drawn) [drawing 22]: in data set [1] (setting [3]), the ED50 was determined as 3 mg/kg.

`O=C(O)Cc1cccc(Oc2ccccc2)c1` [2-(3-phenoxyphenyl)acetic acid] yielded a pKa in “pK'a determination” of 6.9. Compound `CN(C)CCc1cccc(Oc2ccccc2)c1.Cl` [N,N-Dimethyl-2-(3-phenoxyphenyl)ethylamine hydrochloride] gave a pKa in “pK'a determination” of 8.5. The 50% effective dose (ED50) in data set [1] (po) turned out to be 7 mg/kg. Turning to `CC(CCN)c1cccc(Oc2ccccc2)c1` (stereo not drawn) [drawing 29], the median effective dose (ED50) in data set [1] (setting [3]) is 2 mg/kg. Regarding `CC(CN(C)CC1CC1)c1cccc(Oc2ccccc2)c1` (stereo not drawn) [N-Methyl-N-cyclopropylmethyl-2-(3-phenoxyphenyl)propylamine hydrochloride], the pKa in “pK'a determination” is 8.3. On to `CC(CN)c1cccc(Oc2ccccc2)c1` (stereo not drawn) [drawing 17], for which the median effective dose (ED50) in data set [1] (setting [3]) came out at 1 mg/kg.

`CN(C)CCc1cccc(Oc2ccccc2)c1` [drawing 41]: the ED50 in data set [2] stood at 35 mg/kg.

Compound `CC(CCN)c1cccc(Oc2ccccc2)c1` (stereo not drawn) [3-(3-Phenoxyphenyl)butylamine hydrochloride] came in with a pKa in “pK'a determination” of 10.

In the case of `CC(c1cccc(Oc2ccccc2)c1)c1nnn[nH]1` (stereo not drawn) [drawing 36], the ED50 in data set [1] (setting [3]) is 10 mg/kg. Same read-out and setting: to `CCC(=O)OCC(C)c1cccc(Oc2ccccc2)c1` (stereo not drawn) belongs 10 mg/kg; to `CC(=O)OCC(C)c1cccc(Oc2ccccc2)c1` (stereo not drawn), 8 mg/kg; to `C=CCNCC(C)c1cccc(Oc2ccccc2)c1` (stereo not drawn) [drawing 24], 10 mg/kg. Same read-out and setting: the same measure for `CNCCC(C)c1cccc(Oc2ccccc2)c1` (stereo not drawn) [drawing 30]: 5 mg/kg.
